Experimental data from the RepoRT retention time repository.

assay: Agilent ZORBAX 300 SB-C18, 150 × 1 mm, 3.5 µm; A: water + 0.01% heptafluorobutyric acid; B: acetonitrile + 0.01% heptafluorobutyric acid; gradient (min/%B) 0/0 100/90; settings: stereoisomer not certain

NC1C(=O)Nc2ccccc21 (stereo not drawn) and Cn1c(=O)cc(O)c2ccccc21 are within 1.5-fold of each other in LC retention time: 7.8 min for the first, 9.12 min for the second.

CCN(CC)CCNc1c(N)c(=O)oc2ccccc12 and CCCCOc1cc(C(=O)NCCN(CC)CC)c2ccccc2n1 are within 1.5-fold of each other in LC retention time: 8.37 min for the first, 11.8 min for the second.

O=C1CCNC2CCCCC12 (stereo not drawn) and O=C1C=CC(=O)N1C1CCCCC1 are within 1.5-fold of each other in LC retention time: 6.79 min for the first, 9.58 min for the second.

CN(C)CCNC1=CC(=O)CC(C)(C)C1 and CN(C)CCCNCc1ccc2[nH]c3c(c2c1)CCCC3 are within 1.5-fold of each other in LC retention time: 7.29 min for the first, 8.71 min for the second.

Cc1[nH]c2ccccc2c1CCNC(=O)C1CCCN1C(=O)Nc1ccccc1 (stereo not drawn) and CC(=O)c1c(-c2ccccc2)[nH]c2ccccc12 are within 1.5-fold of each other in LC retention time: 12 min for the first, 13 min for the second.

Going from Nc1cc(N)cc(C(=O)O)c1 to Cc1cc(C)cc(N)c1, the LC retention time rises from 4.34 min to 8.29 min (1.9-fold).

CC(C)c1ccc(C=NNC(=O)C[n+]2ccccc2)cc1 and O=C(NN=Cc1ccncc1)c1ccccc1 are within 1.5-fold of each other in LC retention time: 10.4 min for the first, 8.3 min for the second.

Going from Cc1ccc(-c2cc(C(=O)O)c3ccccc3n2)cc1C to Cc1ccc2nc(C)cc(C(=O)O)c2c1, the LC retention time falls from 13.3 min to 6.16 min (2.2-fold).

CCCNC(=O)N1CCCC(C(N)=O)C1 (stereo not drawn) and COC(=O)CCN1CCCCC1 are within 1.5-fold of each other in LC retention time: 6.98 min for the first, 7.02 min for the second.

Cc1cccc(N(C)C)c1 and CCNc1cc(C)ccc1O are within 1.5-fold of each other in LC retention time: 8.26 min for the first, 7.6 min for the second.

Cc1ccc(C)nc1 and COc1cccc2ccc(C)nc12 are within 1.5-fold of each other in LC retention time: 6.66 min for the first, 7.77 min for the second.

COC(=O)Cn1c2c(c3ccccc31)CCCC2 and c1ccc2c3c([nH]c2c1)CCCCC3 are within 1.5-fold of each other in LC retention time: 16.2 min for the first, 16.6 min for the second.

Cc1cc(C)c(NC(=O)Nc2ccccc2)c(C)n1 and CCN(CC)C(=O)c1cc(C)nc2c1c(=O)n(CC(=O)Nc1ccccc1)c(=O)n2C are within 1.5-fold of each other in LC retention time: 8.82 min for the first, 12 min for the second.

CSC1=NCCN1 and c1coc(C2=NCCN2)c1 are within 1.5-fold of each other in LC retention time: 5.98 min for the first, 6.73 min for the second.

CC1CCCCN1C(=O)c1ccccc1N (stereo not drawn) and CC1CCCCN1C(=O)c1ccccc1NC(=O)c1ccco1 (stereo not drawn) are within 1.5-fold of each other in LC retention time: 11.1 min for the first, 12.4 min for the second.

Nc1ccc(NC(=O)c2cccc(C(=O)Nc3ccc(N)cc3)c2)cc1 and CCCC(=O)Nc1cccc(C(=O)Nc2ccc(C(=O)O)cc2)c1 are within 1.5-fold of each other in LC retention time: 7.98 min for the first, 10.5 min for the second.

First: Cc1ccc(CN2C(=O)CCC2=O)o1
Second: Cc1[nH]c2ccccc2c1CCN1C(=O)C2CCCCC2C1=O (stereo not drawn)
The LC retention time of the first is 1.5-fold lower: 9.52 min for the first, 14.3 min for the second.

CCSc1ccc2c(c1)N(CCCN1CCN(C)CC1)c1ccccc1S2 and CN(C)CCCN1c2ccccc2CCc2ccccc21 are within 1.5-fold of each other in LC retention time: 12.8 min for the first, 11.6 min for the second.

Cc1ccc(NC(=S)NC2CC(C)(C)NC(C)(C)C2)cc1 and CC1(C)CC(NCc2ccncc2)CC(C)(C)N1 are within 1.5-fold of each other in LC retention time: 9.5 min for the first, 7.45 min for the second.

First: O=C(O)c1ccc2c(c1)C1C=CCC1C(c1cccc3ccccc13)N2 (stereo not drawn)
Second: O=C(Cc1cccc2ccccc12)N1CCN(Cc2ccccc2)CC1
The LC retention time of the first is 1.5-fold higher: 16.1 min for the first, 10.4 min for the second.

Compared with NC(N)=NC(CC(=O)O)C(=O)O (stereo not drawn), CC(=O)N1CCc2cc(C(=O)O)ccc21 is 4-fold higher in LC retention time: 2.11 min for the first, 8.48 min for the second.

COC(=O)Nc1nc2ccc(Sc3ccccc3)cc2[nH]1 and COc1ccc(C=CC(=O)c2ccccc2)cc1OC are within 1.5-fold of each other in LC retention time: 12.2 min for the first, 14.5 min for the second.

First: COc1ccc2c(c1)C13CCCCC1C(C2)N(C)CC3 (stereo not drawn)
Second: CCOC(=O)c1c(C)n(C2CCCCC2)c2ccc(OC(C)=O)cc12
The LC retention time of the first is 1.7-fold lower: 10.6 min for the first, 17.8 min for the second.

NC1=NC(=Nc2ccc3c(c2)OCCO3)c2ccccc21 and NC(=O)c1cc2c(ccc3ccccc32)oc1=O are within 1.5-fold of each other in LC retention time: 9.45 min for the first, 11.1 min for the second.

First: Cc1[nH][nH]c(=O)c1CCC(=O)NN=Cc1c(C)[nH]c2ccccc12
Second: CCc1c(C)[nH]c(C(=O)OCc2ccccc2)c1C
The LC retention time of the first is 1.9-fold lower: 8.93 min for the first, 17.1 min for the second.

NC(=O)c1ccc(NC(=S)Nc2ccccc2)cc1 and CC(=O)Nc1ccc(C(=O)NCc2ccco2)cc1 are within 1.5-fold of each other in LC retention time: 9.25 min for the first, 8.96 min for the second.

Compared with Cn1nc(-c2ccccc2)c(-c2ccccc2)c(C(=O)O)c1=O, CC1(C)CC(=O)c2c(-c3ccccc3)nc3ccc4ccccc4c3c2C1 is 1.5-fold higher in LC retention time: 11.2 min for the first, 17.1 min for the second.

CCCCCCn1c2ccccc2c2cc(C(C)=O)ccc21 and CCOC(=O)c1c(C)n(-c2ccccc2)c2ccc(OC(C)=O)cc12 are within 1.5-fold of each other in LC retention time: 20 min for the first, 17 min for the second.

COc1ccc(CNCc2ccc(C(C)C)cc2)cc1 and COc1ccc(C=CC(=O)C=Cc2ccc(OC)cc2)cc1 are within 1.5-fold of each other in LC retention time: 11.5 min for the first, 16.1 min for the second.

Cc1ccc2cccc(SC(c3ccccc3)c3ccccc3)c2n1 and Cn1c(-c2c(-c3ccc4ccccc4n3)cnc3ccccc23)nc2ccccc21 are within 1.5-fold of each other in LC retention time: 17.5 min for the first, 12.3 min for the second.

c1cncc(-c2ncc[nH]2)c1 and c1cncc(-c2cn[nH]c2)c1 are within 1.5-fold of each other in LC retention time: 6.65 min for the first, 6.56 min for the second.

O=c1[nH]c(N=NCc2c[nH]c3ccccc23)nnc1-c1ccccc1 and CC(Nc1ccc2ccccc2c1)C(=O)NN=Cc1cccc2ccccc12 (stereo not drawn) are within 1.5-fold of each other in LC retention time: 11.8 min for the first, 16.7 min for the second.

First: CNC(=S)NNC(C)=O
Second: CC(=O)NNC(=O)c1ccncc1
The LC retention time of the first is 1.6-fold lower: 2.17 min for the first, 3.54 min for the second.

Going from OCCNCc1ccccc1 to c1ccc(CNCCc2csc3c2CCCC3)cc1, the LC retention time rises from 7.72 min to 11.7 min (1.5-fold).

Going from Cc1ccnc(=O)[nH]1 to Cc1cc2[nH]c(=O)[nH]c2cc1N, the LC retention time rises from 2.97 min to 6.14 min (2.1-fold).

c1ccc(CC2CCN(Cc3ccccn3)CC2)cc1 and c1ccc(CN2CCCC2)nc1 are within 1.5-fold of each other in LC retention time: 10.1 min for the first, 7.01 min for the second.

First: Cc1ccccc1CN
Second: CCOC(=O)CNc1ccccc1
The LC retention time of the first is 1.6-fold lower: 7.83 min for the first, 12.4 min for the second.

Nc1nc2c([nH]c(=O)n2C2CC(O)C(CO)O2)c(=O)[nH]1 (stereo not drawn) and Cn1c(=O)n(C)c2cc(N)ccc21 are within 1.5-fold of each other in LC retention time: 6.05 min for the first, 6.8 min for the second.

CN1CCN(C(=O)c2nn(C)c(=O)c3ccccc23)CC1 and CC(C)(C)c1ccc(C(=O)N2CCN(Cc3ccccc3)CC2)cc1 are within 1.5-fold of each other in LC retention time: 7.52 min for the first, 11.1 min for the second.

CCCCN1CNC(=S)N(CCc2ccccc2)C1 and CCn1cc(CCC(=O)O)c2ccccc21 are within 1.5-fold of each other in LC retention time: 13.8 min for the first, 12.4 min for the second.

CCN(Cc1ccncc1)C(=S)Nc1ccccc1 and c1cc(CCc2ccncc2)ccn1 are within 1.5-fold of each other in LC retention time: 8.91 min for the first, 7.28 min for the second.

O=C(O)C=CC(=O)N1CCc2ccccc21 and O=C(C=Cc1ccccc1)c1ccc(O)c(O)c1O are within 1.5-fold of each other in LC retention time: 9.97 min for the first, 12.6 min for the second.

CCCOC(=O)c1ccc(NC(=O)c2ccc(C)cc2)cc1 and CC(C)(C)c1ccc(C(=O)Nc2ccc(N)cc2)cc1 are within 1.5-fold of each other in LC retention time: 16.2 min for the first, 11.2 min for the second.

C=CCN1CCNCC1 and C1CCCNCCC1 are within 1.5-fold of each other in LC retention time: 7.39 min for the first, 7.37 min for the second.

CCC(C)n1cc(C=C2NC(=O)NC2=O)c2ccccc21 (stereo not drawn) and Cc1ccccc1N1C(=O)NC(=O)C(=Cc2cccn2C)C1=O are within 1.5-fold of each other in LC retention time: 12.7 min for the first, 10.9 min for the second.

CC(=O)Nc1ccc(O)c(NC(C)=O)c1 and CC(C)(C)NCC(O)c1ccc(O)c(CO)c1 (stereo not drawn) are within 1.5-fold of each other in LC retention time: 6.39 min for the first, 7.63 min for the second.

CCCCNCC and CCCCNC(=O)NCCCC are within 1.5-fold of each other in LC retention time: 7.1 min for the first, 10.5 min for the second.

First: CN1CCOC1=O
Second: O=C1CCCN1CCc1ccccn1
The LC retention time of the first is 1.7-fold lower: 3.96 min for the first, 6.77 min for the second.

Compared with CCN(CC)CC(CP(=O)(O)O)P(=O)(O)O (stereo not drawn), CCN(CC)CCCC(C)N (stereo not drawn) is 6.2-fold higher in LC retention time: 1.13 min for the first, 7.05 min for the second.

COc1ccc(C=NCCC2=CCCCC2)cc1OC and COc1cc(N)c(N2CCOCC2)cc1OC are within 1.5-fold of each other in LC retention time: 10 min for the first, 7.99 min for the second.

Compared with Cc1ccc(CN2CCN(N=Cc3ccco3)CC2)cc1, Cc1ccc(N2C(=O)CC(N(CCc3ccccc3)C(=S)Nc3cccc(C)c3)C2=O)cc1 (stereo not drawn) is 1.8-fold higher in LC retention time: 9.55 min for the first, 17.6 min for the second.

CNCCCCCCNC and CC(C)NCCN(CCNC(C)C)CCNC(C)C are within 1.5-fold of each other in LC retention time: 7.03 min for the first, 7.84 min for the second.

CC(=NN=C(C)c1cccc(N)c1)c1cccc(N)c1 and O=C(C=Cc1cccc(O)c1)c1ccccc1O are within 1.5-fold of each other in LC retention time: 8.74 min for the first, 12.2 min for the second.

Compared with CN(C)C=CC=O, CN(C)C=CC(=O)c1ccc2ccccc2c1 is 2-fold higher in LC retention time: 5.98 min for the first, 12.2 min for the second.

COc1cc(Cc2cnc(N)nc2N)cc(OC)c1OC and COc1cc(C(=O)Nc2ccc(N3CCCC3=O)cc2)cc(OC)c1OC are within 1.5-fold of each other in LC retention time: 8.69 min for the first, 10.8 min for the second.

Going from CCn1c(C)cc(C=O)c1C to Cc1ccc(C)c2c1ccn2C, the LC retention time rises from 9.93 min to 15.8 min (1.6-fold).

COc1ccc(C=CC(C)=O)cc1 and COc1ccc(C=CC(=O)C=Cc2ccc(OC)cc2OC)c(OC)c1 are within 1.5-fold of each other in LC retention time: 12 min for the first, 16.6 min for the second.

C=CCC1(C(C)C)C(=O)NC(=O)NC1=O and O=c1nc(NN=Cc2cccnc2)cn[nH]1 are within 1.5-fold of each other in LC retention time: 9.74 min for the first, 6.94 min for the second.

C#CC1(NC(C)=O)CCCCC1 and S=C(Nc1ccccc1)N1CCCCC1 are within 1.5-fold of each other in LC retention time: 9.46 min for the first, 12.3 min for the second.

O=c1cccc[nH]1 and Nc1cccnc1 are within 1.5-fold of each other in LC retention time: 4.79 min for the first, 5.54 min for the second.

Cc1cccc(C)c1NC(=S)NCC(C)NC(=S)Nc1c(C)cccc1C (stereo not drawn) and CC(CC(=O)Nc1ccc(Nc2ccccc2)cc1)=NNC(=O)Cc1ccccc1 are within 1.5-fold of each other in LC retention time: 13.9 min for the first, 13.1 min for the second.

Compared with COc1ccc(OC)c2c(C)cc(C)nc12, COc1ccc(C2N(c3ccccc3)CCN2c2ccccc2)cc1 is 2.1-fold higher in LC retention time: 8.94 min for the first, 18.6 min for the second.

Compared with O=C(Oc1ccccc1)c1cccnc1, O=C(O)c1ccncn1 is 6-fold lower in LC retention time: 11.9 min for the first, 2 min for the second.

O=C1CC(N2CCN(C3CC(=O)N(CCc4ccccc4)C3=O)CC2)C(=O)N1CCc1ccccc1 (stereo not drawn) and Nc1cc(C(=O)N2CCCCC2)cc(C(=O)N2CCCCC2)c1 are within 1.5-fold of each other in LC retention time: 12.4 min for the first, 9.88 min for the second.
